Test results from patent US6641841B2, “Tablet composition” (Ajinomoto Co., Inc., priority 1996, dated 2003).

Assays:
[1] = test system: blood sugar level; details: taken orally; cited from earlier work
[2] = Bioavailability of compound [1] taken orally before or after a meal; format: in vivo

CC(C)[C@H]1CC[C@H](C(=O)N[C@H](Cc2ccccc2)C(=O)O)CC1 [compound [1], N-(trans-4-isopropylcyclohexanecarbonyl)-D-phenylalanine]
effect of lowering the blood sugar level [1]: excellent effect of lowering the blood sugar level | bioavailability [2]: lowered
